Measurements from US12213988B2 (ASTRAZENECA AB, priority 2020, dated 2025).
Read-outs that look alike come from different tables or passages of the source.

Columns and labels:
[1] = system: patients with chronic kidney disease (CKD)
Method: The study population chosen for this study included a broad population of patients with impaired kidney function. The target population had CKD (defined as eGFR ≥25 and ≤75 mL/min/1.73 m^2) with albuminuria (defined as urine albumin creatinine ratio [UACR]≥200 and ≤5000 mg/g) with or without type 2 diabetes (T2D).
Patients included in the study satisfied the following criteria: • Female or male aged ≥18 years at the time of consent. • eGFR ≥25 and ≤75 mL/min/1.73 m^2 (CKD-EPI Formula) at visit 1. • Evidence of increased albuminuria 3 months or more before visit 1 and UACR ≥200 and ≤5000 mg/g at visit 1. • Stable, and for the patient maximum tolerated labelled daily dose, treatment with ACE-I or ARB for at least 4 weeks before visit 1, if not medically contraindicated.
The primary outcome measure was based on the requirements as outlined in the European Medicines Agency (EMA)'s draft guideline, which states that a composite endpoint of ≥50% sustained decline in eGFR, end stage renal disease (ESRD), and renal death (death due to ESRD when dialysis is not given) are acceptable outcome measures (EMA 2016). This endpoint has also been used in a number of previous outcome studies.
The primary variable was the time to first event included in the primary composite endpoint. The primary analysis was based on the intention to treat (ITT) principle using the FAS.

[2] = system: patients with CKD and prediabetes
[3] = system: patients with heart failure with reduced ejection fraction
[4] = system: patients with chronic kidney disease (CKD); remark: listed apart in the source
[5] = vs placebo or standard of care CKD agent alone, in words
[6] = vs placebo or standard of care CKD agent alone, in words, listed as Dapagliflozin
[7] = dapagliflozin 10 mg once daily, CKD and prediabetes, median follow-up of 2.4 years
[8] = dapa group, DAPA-HF non-T2D patients
[9] = Dapa 10 mg (N = 2149), on-treatment period per Table 2 footnote
[10] = No diabetes, Dapa 10 mg (N = 696), on- and off-treatment periods
[11] = patients with T2DM, Dapa 10 mg (N = 1453), on- and off-treatment periods

With `CCOc1ccc(Cc2cc([C@@H]3O[C@H](CO)[C@@H](O)[C@H](O)[C@H]3O)ccc2Cl)cc1` [dapagliflozin] the “hazard ratio, primary end point (≥50% sustained decline in eGFR, ESRD, and CV or renal death)” value ([1]; dapagliflozin vs placebo, 95% CI 0.51 to 0.72, P<0.0001) was 0.61, the “effect on death from any cause” value [1, 5] was “superior” and the “effect on renal-only secondary endpoint (composite of ≥50% sustained decline in eGFR, ESRD & renal death; renal composite without CV death)” value [1, 5] was “superior”. For the same compound, the “effect on secondary endpoint composite of CV death and hospitalisation for HF” value [1, 5] was “superior”, the “effect on time to first, second, or third hospitalisation for HF (exploratory endpoints)” value [1, 5] was “superior” and the “effect on death from any cause” value [1, 6] was “superior to placebo”. The “effect on renal-only secondary endpoint (composite of ≥50% sustained decline in eGFR, ESRD & renal death; renal composite without CV death)” value [1, 6] was “significant treatment effect”, the “effect on secondary endpoint composite of CV death and hospitalisation for HF” value [1, 6] was “Statistically significant reduction” and the “effect on composite of ≥50% sustained eGFR decline, ESRD, and renal or CV death (primary objective)” value ([1]; vs placebo, in words) was “clinically meaningful and statistically significant reduction”. For the same compound, the “T2D developed in” value [2, 7] was 3.0%, the “T2D developed in (patients/group)” value [2, 7] was 21/697 and the “event rate of newly diagnosed T2D” value ([2]; dapagliflozin 10 mg once daily, median follow-up of 2.4 years) was 1.5 /100-patient years. For the same compound, the “reduction in T2D incidence” value ([2]; dapagliflozin vs placebo) was 38%, the new-onset diabetes [3, 8] was 4.9% and the “new-onset diabetes (patients/group)” value [3, 8] was 64/1298. For the same compound, the “HR, new-onset diabetes” value ([3]; dapa vs placebo, 95% CI, 0.50-0.94, p=0.019, Cox) was 0.68, the “reduction of new-onset diabetes” value ([3]; dapa vs placebo, DAPA-HF non-T2D patients) was 32% and the “SAE: Infections and infestations” value ([4]; Dapa 10 mg (N = 2149), on-treatment period) was 171 (8.0) Number (%) of subjects. For the same compound, the “Any AE with outcome = death” value [4, 9] was 106 (4.9) Number (%) of subjects, the “Any SAE (including events with outcome = death)” value (from here on “Any SAE”) [4, 9] was 633 (29.5) Number (%) of subjects and the “Any AE with outcome = death” value [4, 10] was 17 (2.4) Number (%) of subjects. The “Any SAE” value [4, 10] was 150 (21.6) Number (%) of subjects, the “Deaths, SAEs (serious adverse events) and DAEs (discontinuations due to adverse event)” value ([4]; dapagliflozin group compared with placebo group, in words) was “fewer” and the “AEs leading to dose reduction” value ([4]; human, in vivo) was “few but more common”. The “patients reported SAEs, overall” value ([4]; human, in vivo) was “fewer”, the “Any AE with outcome = death” value [4, 11] was 89 (6.1) Number (%) of subjects and the “Any SAE” value [4, 11] was 483 (33.2) Number (%) of subjects.
